Experimental data: ChEMBL document CHEMBL4196087 (Eur J Med Chem, 2018)

Key:
[1] = test system: Escherichia coli; assay: Antibacterial activity against Escherichia coli at 37 degC measured after 24 hrs by agar disc diffusion method; type: functional
[2] = test system: UO-31; assay: Potency index, ratio of doxorubicin IC50 to compound IC50 for antiproliferative activity against human UO31 cells; type: functional
[3] = test system: Staphylococcus aureus; assay: Antibacterial activity against Staphylococcus aureus at 37 degC measured after 24 hrs by agar disc diffusion method; type: functional
[4] = test system: UO-31; assay: Antiproliferative activity against human UO31 cells after 48 hrs by MTT assay; type: functional, cell-based; conditions: UO-31, 48 h
[5] = test system: UO-31; assay: Antiproliferative activity against human UO31 cells after 48 hrs by SRB assay; type: functional; conditions: UO-31, 48 h
[6] = test system: Bacillus subtilis; assay: Antibacterial activity against Bacillus subtilis at 37 degC measured after 24 hrs by agar disc diffusion method; type: functional
[7] = test system: Pseudomonas aeruginosa; assay: Antibacterial activity against Pseudomonas aeruginosa at 37 degC measured after 24 hrs by agar disc diffusion method; type: functional
[8] = test system: UO-31; assay: Induction of apoptosis in human UO31 cells assessed as live cells at 0.75 uM after 24 hrs by Annexin V-FITC/propidium iodide staining based low cytometry (reference value: 97.84%); type: functional
[9] = test system: UO-31; assay: Induction of apoptosis in human UO31 cells assessed as caspase-3 activation by measuring active caspase-3 level at 0.75 uM by […] (reference value: 66 pg/ml); type: functional
[10] = test system: UO-31; assay: Cell cycle arrest in human UO31 cells assessed as accumulation at pre-G1 phase at 0.75 uM after 24 hrs by propidium iodide staining based flow cytometry relative to control; type: functional
[11] = biological target: T1, DNA topoisomerase 2-beta (Homo sapiens, UniProt Q02880); assay: Potency index, ratio of etoposide IC50 to compound IC50 for inhibition of human topoisomerase-2B
[12] = biological target: T1, DNA topoisomerase 2-beta; assay: Potency index, ratio of amsacrine IC50 to compound IC50 for inhibition of human topoisomerase-2B
[13] = test system: UO-31; assay: Induction of apoptosis in human UO31 cells assessed as necrotic cells at 0.75 uM after 24 hrs by Annexin V-FITC/propidium iodide staining based flow cytometry (reference value: 0.08%); type: functional
[14] = test system: UO-31; assay: Induction of apoptosis in human UO31 cells assessed as early apoptotic cells at 0.75 uM after 24 hrs by Annexin V-FITC/propidium iodide staining based flow cytometry (reference value: 0.19%); type: functional
[15] = test system: UO-31; assay: Cell cycle arrest in human UO31 cells assessed as apoptotic cells at 0.75 uM after 24 hrs by propidium iodide staining based flow cytometry (reference value: 0.49%); type: functional
[16] = test system: UO-31; assay: Cell cycle arrest in human UO31 cells assessed as accumulation at G2 phase at 0.75 uM after 24 hrs by propidium iodide staining based flow cytometry (reference value: 5.49%); type: functional
[17] = test system: UO-31; assay: Cell cycle arrest in human UO31 cells assessed as accumulation at S phase at 0.75 uM after 24 hrs by propidium iodide staining based flow cytometry (reference value: 24.47%); type: functional
[18] = test system: UO-31; assay: Induction of apoptosis in human UO31 cells assessed as late apoptotic cells at 0.75 uM after 24 hrs by Annexin V-FITC/propidium iodide staining based flow cytometry (reference value: 0.22%); type: functional
[19] = biological target: T1, DNA topoisomerase 2-beta; assay: Inhibition of human topoisomerase-2B after 2 hrs by ELISA
[20] = test system: UO-31; assay: Cell cycle arrest in human UO31 cells assessed as accumulation at G1 phase at 0.75 uM after 24 hrs by propidium iodide staining based flow cytometry (reference value: 69.55%); type: functional
[21] = test system: UO-31; assay: Cell cycle arrest in human UO31 cells assessed as accumulation at G2/M phase at 0.75 uM after 24 hrs by propidium iodide staining based flow cytometry relative to control; type: functional
[22] = biological target: T1, DNA topoisomerase 2-beta; assay: Potency index, ratio of doxorubicin IC50 to compound IC50 for inhibition of human topoisomerase-2B
[23] = test system: HOP-92; assay: Growth inhibition of human HOP92 cells at 10^-5 M incubated for 48 hrs by sulforhodamine B assay relative to control; type: functional; conditions: HOP-92, 48 h, read-out: GI
[24] = test system: LOX IMVI; assay: Growth inhibition of human LOXIMVI cells at 10^-5 M incubated for 48 hrs by sulforhodamine B assay relative to control; type: functional; conditions: read-out: GI
[25] = test system: MOLT-4; assay: Growth inhibition of human MOLT4 cells at 10^-5 M incubated for 48 hrs by sulforhodamine B assay relative to control; type: functional; conditions: MOLT-4, 48 h, read-out: GI
[26] = test system: PC-3; assay: Growth inhibition of human PC3 cells at 10^-5 M incubated for 48 hrs by sulforhodamine B assay relative to control; type: functional; conditions: PC-3, 48 h, read-out: GI
[27] = test system: UO-31; assay: Growth inhibition of human UO31 cells at 10^-5 M incubated for 48 hrs by sulforhodamine B assay relative to control; type: functional; conditions: UO-31, 48 h, read-out: GI
[28] = test system: T47D; assay: Growth inhibition of human T47D cells at 10^-5 M incubated for 48 hrs by sulforhodamine B assay relative to control; type: functional; conditions: read-out: GI
[29] = test system: SK-OV-3; assay: Growth inhibition of human SKOV3 cells at 10^-5 M incubated for 48 hrs by sulforhodamine B assay relative to control; type: functional; conditions: SK-OV-3, 48 h, read-out: GI
[30] = test system: HOP-62; assay: Growth inhibition of human HOP62 cells at 10^-5 M incubated for 48 hrs by sulforhodamine B assay relative to control; type: functional; conditions: HOP-62, 48 h, read-out: GI

T1 sequence (Q02880 whole entry): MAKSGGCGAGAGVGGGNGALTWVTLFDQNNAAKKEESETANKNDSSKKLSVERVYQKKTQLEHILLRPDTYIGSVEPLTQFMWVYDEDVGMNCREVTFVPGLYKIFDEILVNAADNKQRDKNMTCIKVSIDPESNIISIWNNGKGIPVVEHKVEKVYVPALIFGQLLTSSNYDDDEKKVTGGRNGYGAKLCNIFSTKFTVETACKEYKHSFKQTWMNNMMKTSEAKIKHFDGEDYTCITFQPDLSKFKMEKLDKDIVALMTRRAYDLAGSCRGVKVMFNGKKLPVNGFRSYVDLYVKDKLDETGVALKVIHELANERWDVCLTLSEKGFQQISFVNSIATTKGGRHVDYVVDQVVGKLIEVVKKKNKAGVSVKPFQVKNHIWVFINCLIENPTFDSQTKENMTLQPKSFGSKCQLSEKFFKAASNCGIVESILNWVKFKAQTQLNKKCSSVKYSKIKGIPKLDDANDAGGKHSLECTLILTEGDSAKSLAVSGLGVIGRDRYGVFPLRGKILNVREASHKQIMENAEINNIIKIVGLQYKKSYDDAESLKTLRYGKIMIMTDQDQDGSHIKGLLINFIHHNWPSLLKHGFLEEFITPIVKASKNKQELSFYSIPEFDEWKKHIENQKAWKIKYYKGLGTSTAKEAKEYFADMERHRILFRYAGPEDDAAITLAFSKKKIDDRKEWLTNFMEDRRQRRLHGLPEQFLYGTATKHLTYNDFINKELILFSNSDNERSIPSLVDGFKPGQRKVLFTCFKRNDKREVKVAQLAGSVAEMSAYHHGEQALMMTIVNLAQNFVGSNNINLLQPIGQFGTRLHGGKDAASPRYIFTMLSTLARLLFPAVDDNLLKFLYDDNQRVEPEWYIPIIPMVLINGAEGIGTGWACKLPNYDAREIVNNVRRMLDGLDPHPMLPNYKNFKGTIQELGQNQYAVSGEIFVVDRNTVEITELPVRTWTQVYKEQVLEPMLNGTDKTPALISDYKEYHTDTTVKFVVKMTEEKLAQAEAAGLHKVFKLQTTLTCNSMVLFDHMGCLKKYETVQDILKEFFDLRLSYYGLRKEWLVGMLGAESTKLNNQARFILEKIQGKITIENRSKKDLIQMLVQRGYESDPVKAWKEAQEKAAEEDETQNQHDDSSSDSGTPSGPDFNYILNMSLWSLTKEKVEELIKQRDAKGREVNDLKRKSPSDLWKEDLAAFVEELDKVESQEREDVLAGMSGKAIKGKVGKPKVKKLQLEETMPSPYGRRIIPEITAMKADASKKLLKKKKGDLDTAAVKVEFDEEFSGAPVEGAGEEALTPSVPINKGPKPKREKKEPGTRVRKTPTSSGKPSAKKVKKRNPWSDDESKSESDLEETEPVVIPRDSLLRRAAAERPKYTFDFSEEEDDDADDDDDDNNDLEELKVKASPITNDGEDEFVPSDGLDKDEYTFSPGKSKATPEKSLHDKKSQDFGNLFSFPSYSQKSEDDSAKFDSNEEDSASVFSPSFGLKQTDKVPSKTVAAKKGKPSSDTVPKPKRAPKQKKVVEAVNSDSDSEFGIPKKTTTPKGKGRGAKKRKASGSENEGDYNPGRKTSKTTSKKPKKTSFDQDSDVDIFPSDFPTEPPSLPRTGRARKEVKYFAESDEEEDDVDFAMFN

Q: Which “diameter of the inhibition zone (DIZ)” value [1] does the source give for `O=C(CN1CCN(c2cc3c(cc2F)c(=O)c(C(=O)O)cn3C2CC2)CC1)N/N=C/c1ccc(O)cc1O` here?
A: Its value is 20 mm.

Q: What about the “Ratio IC50” value [2] of the same compound?
A: Its value is 1.5 - 9.

Q: What about the “diameter of the inhibition zone (DIZ)” value [3] of the same compound?
A: The value was 21 mm.

Q: And the IC50 [4]?
A: The IC50 was 3.19 µM.

Q: And the LC50 [5]?
A: The LC50 was 13 µM.

Q: And the “diameter of the inhibition zone (DIZ)” value [6]?
A: Its value is 24 mm.

Q: What about the “diameter of the inhibition zone (DIZ)” value [7] of the same compound?
A: Its value is 23 mm.

Q: What does the source list for `O=C(CN1CCN(c2cc3c(cc2F)c(=O)c(C(=O)O)cn3C2CC2)CC1)N/N=C/c1ccccc1O`?
A: Activity [8]: 91.8%; Activity [9]: 346.4 pg/mL; diameter of the inhibition zone (DIZ) [1]: 16 mm; fold change (FC) [10]: 13.9; Ratio IC50 [11]: 1.5; Ratio IC50 [2]: 1.5 - 9; Ratio IC50 [12]: 5; Activity [13]: 0.87%; Activity [14]: 2.64%; Activity [15]: 6.83%; Activity [16]: 11.28%; Activity [17]: 22.02%; diameter of the inhibition zone (DIZ) [3]: 15 mm; Activity [18]: 3.32%; IC50 [4]: 0.75 µM; LC50 [5]: 15.2 µM; diameter of the inhibition zone (DIZ) [6]: 18 mm; IC50 [19]: 0.58 µM; Activity [20]: 59.87%; diameter of the inhibition zone (DIZ) [7]: 17 mm; fold change (FC) [21]: 2.05; Ratio IC50 [22]: 6

Q: `O=C(O)c1cn(C2CC2)c2cc(N3CCN(Cc4nnc(S)o4)CC3)c(F)cc2c1=O` was tested. Which “diameter of the inhibition zone (DIZ)” value [1] did it give?
A: Its value is 25 mm.

Q: What about the inhibition of growth at 10 µM [23] of the same compound?
A: Its inhibition of growth at 10 µM is under 20%.

Q: What about the inhibition of growth at 10 µM [24] of the same compound?
A: Its inhibition of growth at 10 µM is under 20%.

Q: And the inhibition of growth at 10 µM [25]?
A: The inhibition of growth at 10 µM was 23%.

Q: And the inhibition of growth at 10 µM [26]?
A: Its inhibition of growth at 10 µM is 23.4%.

Q: What about the inhibition of growth at 10 µM [27] of the same compound?
A: The inhibition of growth at 10 µM was under 20%.

Q: What about the “diameter of the inhibition zone (DIZ)” value [3] of the same compound?
A: The value was 24 mm.

Q: What about the inhibition of growth at 10 µM [28] of the same compound?
A: The inhibition of growth at 10 µM was under 20%.

Q: And the “diameter of the inhibition zone (DIZ)” value [6]?
A: Its value is 29 mm.

Q: What about the inhibition of growth at 10 µM [29] of the same compound?
A: Its inhibition of growth at 10 µM is under 20%.

Q: And the “diameter of the inhibition zone (DIZ)” value [7]?
A: The value was 27 mm.

Q: What about the inhibition of growth at 10 µM [30] of the same compound?
A: Its inhibition of growth at 10 µM is under 20%.
